Results from patent publication US10000471B2, “Pyrazole P38 map kinase inhibitors” (Respivert Limited, priority 2010, dated 2018).
Entries after “also recorded” stand apart in the source; their conditions may differ.

How the values were obtained:
[1] = molecular target: T1, p38 MAPKα isoform (MAPK14) (Homo sapiens, UniProt Q16539); assay: Enzyme inhibition assay (FRET, Z-LYTE), p38 MAPKα via MAPKAP-K2 activation; type: biochemical; settings: read-out: Enzyme Inhibition IC50 p38α
T1 construct: purchased Invitrogen
Summary of the method: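 Recombinant p38 MAPKα was preincubated with compound for 2 h at RT. Its activity was measured indirectly through activation/phosphorylation of downstream MAPKAP-K2, with a Z-LYTE FRET peptide read-out (coumarin/fluorescein ratio) after a 1 h development step. IC50 came from concentration-response curves of percent inhibition versus an uninhibited control.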

p38 MAPKγ (MAPK12) = molecular target: T2, p38 MAPKγ (MAPK12) (Homo sapiens, UniProt P53778); assay: Enzyme inhibition assay (FRET, Z-LYTE), p38 MAPKγ; type: biochemical; settings: read-out: Enzyme Inhibition IC50 p38γ
T2 construct: purchased Invitrogen
T2 sequence (P53778 1-367): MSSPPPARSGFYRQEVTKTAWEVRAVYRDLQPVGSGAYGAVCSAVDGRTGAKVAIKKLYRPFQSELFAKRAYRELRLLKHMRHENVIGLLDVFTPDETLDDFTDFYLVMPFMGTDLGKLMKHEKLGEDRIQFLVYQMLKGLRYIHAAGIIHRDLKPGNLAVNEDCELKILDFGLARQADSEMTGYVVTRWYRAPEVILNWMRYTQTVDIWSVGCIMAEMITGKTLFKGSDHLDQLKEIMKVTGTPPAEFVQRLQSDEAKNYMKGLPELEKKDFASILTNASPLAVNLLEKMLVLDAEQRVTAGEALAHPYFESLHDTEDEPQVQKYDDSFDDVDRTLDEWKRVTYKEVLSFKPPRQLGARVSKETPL
Summary of the method: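 Recombinant phosphorylated p38 MAPKγ preincubated 2 h at RT with compound in HEPES buffer, then 2 μM FRET peptide and 100 μM ATP added for 1 h; protease development 1 h. Coumarin/fluorescein emission ratio gave phosphorylation; IC50 from concentration-response versus uninhibited control.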

[2] = system: TNFα release in THP-1 cells; assay: LPS-induced TNFα release in THP-1 cells; type: cell-based, human; settings: Homo sapiens
Summary of the method: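 Human monocytic THP-1 cells stimulated with 3 μg/mL E. coli LPS for 4 hr; supernatant TNFα measured by sandwich ELISA. Inhibition at each concentration versus vehicle control, IC50 from concentration-response curve.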

[3] = system: TNFα release in d-U937 cells; assay: LPS-induced TNFα release in d-U937 cells; type: cell-based, human; settings: Homo sapiens, dU937, relative to 10 μg/mL BIRB796, read-out: LPS/TNFα REC50 d-U937
Summary of the method: (§1)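 PMA-differentiated (100 ng/ml, 48–72 hr) U937 macrophage-type cells pre-incubated 2 hr with compound, then stimulated 4 hr with 0.1 μg/mL E. coli O111:B4 LPS; supernatant TNFα and IL-8 measured by sandwich ELISA. TNFα inhibition expressed relative to 10 μg/mL BIRB796, giving REC50; IL-8 inhibition versus vehicle, giving IC50.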

[4] = system: IL-8 release in d-U937 cells; assay: LPS-induced IL-8 release in d-U937 cells; type: cell-based, human; settings: Homo sapiens, dU937
Summary of the method: as §1

[5] = system: ICAM-1 induction in BEAS2B cells; assay: Poly I:C-induced ICAM-1 induction in BEAS2B cells; type: cell-based, human; settings: Homo sapiens, BEAS-2B, read-out: PolyIC/ICAM1 IC50 BEAS2B
Summary of the method: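 Human bronchial epithelial BEAS2B cells were pre-incubated with compound for 2 hr, then transfected with 1 μg/mL poly I:C. After 18 hr, surface ICAM-1 was measured by cell-based ELISA (OD450-655) and normalized to crystal violet cell counts (OD595). IC50 came from inhibition versus vehicle across the concentration-response curve.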

[6] = system: Differentiated U937 cells; assay: Cell viability MTT assay; type: cell-based, human; settings: negative = apparent increase in viability; for MTT Assay (Viability) 4 h d-U937, percentage loss of cell viability: 4 hr in 5% FCS; for MTT Assay (Viability) 24 h d-U937, percentage loss of cell viability: 24 h in 10% FCS
Summary of the method: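 Differentiated U937 cells pre-incubated with compound either 4 hr in 5% FCS or 24 h in 10% FCS, then 1 hr MTT. Formazan dissolved in DMSO, absorbance at 550 nm. Percentage viability loss relative to 0.5% DMSO vehicle; apparent increases appear as negative percentages.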

Balb/c mice = assay: LPS-induced neutrophil accumulation in mice; type: in vivo; settings: for % inhibition of Influx / Neutrophil numbers in BAL 8 h pre-dose: 0.2 mg/mL, 8 h pre-dose; for inhibitory effects versus neutrophil influx into the BALF: dosed 8 hr before the inflammatory stimulus
Procedure: LPS-Induced Neutrophil Accumulation in Mice
Non-fasted Balb/c mice were dosed by the intra tracheal route with either vehicle, or the test substance at the indicated times (within the range 2-8 hr) before stimulation of the inflammatory response by application of an LPS challenge. At T=0, mice were placed into an exposure chamber and exposed to LPS. After a further 8 hr the animals were anesthetized, their tracheas cannulated and BALF extracted by infusing and then withdrawing from their lungs 1.0 mL of PBS via the tracheal catheter. Total and differential white cell counts in the BALF samples were measured using a Neubaur haemocytometer. Cytospin smears of the BALF samples were prepared by centrifugation at 200 rpm for 5 min at RT and stained using a DiffQuik stain system (Dade Behring). Cells were counted using oil immersion microscopy.

A/J mice = assay: Cigarette smoke model; type: in vivo; settings: 1.75 μg/mouse (35 μL, bid, i.n.), cigarette smoke model
Procedure: A/J mice (males, 5 weeks old) were exposed to cigarette smoke (4% cigarette smoke, diluted with air) for 30 min/day for 11 days using a Tobacco Smoke Inhalation Experiment System for small animals (Model SIS-CS; Sibata Scientific Technology, Tokyo, Japan). Test substances were administered intra-nasally (35 μL of solution in 50% DMSO/PBS) twice daily for 3 days after the final cigarette smoke exposure. At 12 hr after the last dosing, each of the animals was anesthetized, the trachea cannulated and bronchoalveolar lavage fluid (BALF) was collected. The numbers of alveolar macrophages and neutrophils were determined by FACS analysis (EPICS® ALTRA II, Beckman Coulter, Inc., Fullerton, Calif., USA) using anti-mouse MOMA2 antibody (macrophage) or anti-mouse 7/4 antibody (neutrophil).
The data for cell numbers are shown as the mean±SEM.

T1 sequence (Q16539 whole entry, canonical isoform): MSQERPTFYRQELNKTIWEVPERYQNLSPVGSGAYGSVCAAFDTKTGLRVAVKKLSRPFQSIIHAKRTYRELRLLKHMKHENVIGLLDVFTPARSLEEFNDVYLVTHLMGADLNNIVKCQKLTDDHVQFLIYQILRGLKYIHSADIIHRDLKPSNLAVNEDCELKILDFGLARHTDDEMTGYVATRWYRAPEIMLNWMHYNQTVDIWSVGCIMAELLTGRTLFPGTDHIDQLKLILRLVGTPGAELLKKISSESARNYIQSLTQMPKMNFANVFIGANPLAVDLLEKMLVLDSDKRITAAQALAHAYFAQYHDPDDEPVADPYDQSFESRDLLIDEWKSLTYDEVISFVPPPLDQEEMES

| Structure (SMILES) | IC50 [1] | IC50 (p38 MAPKγ (MAPK12)) | IC50 [2] | EC50 [3] | IC50 [4] | IC50 [5] | MTT Assay (Viability) 4 h d-U937, percentage loss of cell viability [6] | MTT Assay (Viability) 24 h d-U937, percentage loss of cell viability [6] | % inhibition of Influx (Balb/c mice; Table 5) | Neutrophil numbers in BAL 8 h pre-dose (Balb/c mice; Table 5) | inhibitory effects versus neutrophil influx into the BALF (Balb/c mice) | % inhibition of Influx (Balb/c mice; Table 6) | Neutrophil numbers in BAL 8 h pre-dose (Balb/c mice; Table 6) | inhibition of LPS-induced neutrophil accumulation (Balb/c mice; 1.75 μg/mouse) | neutrophil or macrophage accumulation into airways (A/J mice) |
| --- | --- | --- | --- | --- | --- | --- | --- | --- | --- | --- | --- | --- | --- | --- | --- |
| CC(C)(C)c1cc(NC(=O)Nc2ccc(Oc3ccnc(NC(=O)N4CCCC4)c3)c(Cl)c2Cl)n(-c2ccc(O)cc2)n1 [Example 75, N-(4-(4-(3-(3-tert-butyl-1-(4-hydroxyphenyl)-1H-pyrazol-5-yl)ureido)-2,3-dichlorophenoxy)pyridin-2-yl)pyrrolidine-1-carboxamide] | 147 nM | 181 nM | 0.4 nM | 1.3 nM | 1.7 nM | 0.3 nM | −33.7% | 6.6% | – | – | inhibitory effects; also recorded: particularly marked | 23% | 10.87 ± 2.13 × 10^5/mL | – | – |
| CCC(=O)O[C@]1(C(=O)SCF)[C@H](C)C[C@H]2[C@@H]3C[C@H](F)C4=CC(=O)C=C[C@]4(C)[C@@]3(F)[C@@H](O)C[C@@]21C [fluticasone propionate, reference compound] | – | – | – | – | – | – | – | – | – | – | – | – | – | > 80% | did not inhibit |

Continued by falling IC50 [1], values first:

| IC50 [1] | IC50 (p38 MAPKγ (MAPK12)) | IC50 [2] | EC50 [3] | IC50 [4] | Structure (SMILES) | IC50 [5] | MTT Assay (Viability) 4 h d-U937, percentage loss of cell viability [6] | MTT Assay (Viability) 24 h d-U937, percentage loss of cell viability [6] | % inhibition of Influx (Balb/c mice; Table 5) | Neutrophil numbers in BAL 8 h pre-dose (Balb/c mice; Table 5) | inhibitory effects versus neutrophil influx into the BALF (Balb/c mice) | % inhibition of Influx (Balb/c mice; Table 6) | Neutrophil numbers in BAL 8 h pre-dose (Balb/c mice; Table 6) | inhibition of LPS-induced neutrophil accumulation (Balb/c mice; 1.75 μg/mouse) | neutrophil or macrophage accumulation into airways (A/J mice) |
| --- | --- | --- | --- | --- | --- | --- | --- | --- | --- | --- | --- | --- | --- | --- | --- |
| 58.3 nM | 162 nM | 1.6 nM | 1.2 nM | 5.9 nM | COCC(=O)Nc1cc(Oc2ccc(NC(=O)Nc3cc(C(C)(C)C)nn3-c3ccc(OC)cc3)c(Cl)c2Cl)ncn1 [Example 91, N-(6-(4-(3-(3-tert-butyl-1-(4-methoxyphenyl)-1H-pyrazol-5-yl)ureido)-2,3-dichlorophenoxy)pyrimidin-4-yl)-2-methoxyacetamide] | 2.9 nM | −47.2% | 6.9% | 33% | 11.67 ± 2.07 × 10^5/mL | inhibitory effects; also recorded: particularly marked | – | – | – | – |
| 12.3 nM | 59.3 nM | 0.6 nM | 0.8 nM | 3.6 nM | CN(C)[C@H]1CCN(C(=O)Nc2cc(Oc3ccc(NC(=O)Nc4cc(C(C)(C)C)nn4-c4ccc(O)cc4)c(Cl)c3Cl)ccn2)C1 [Example 80, (S)-N-(4-(4-(3-(3-tert-butyl-1-(4-hydroxyphenyl)-1H-pyrazol-5-yl)ureido)-2,3-dichlorophenoxy)pyridin-2-yl)-3-(dimethylamino) pyrrolidine-1-carboxamide] | 2.3 nM | −3.0% | 15.7% | 12% | 15.22 ± 2.34 × 10^5/mL | inhibitory effects | – | – | – | – |
| 5.7 nM | 46.3 nM | 1.7 nM | 1.7 nM | 1.1 nM | Cc1ccc(-n2nc(C(C)(C)C)cc2NC(=O)Nc2ccc(Oc3cc(NC(=O)NCCN(C)C)ncn3)c(Cl)c2Cl)cc1 [Example 24, 1-(3-tert-Butyl-1-p-tolyl-1H-pyrazol-5-yl)-3-(2,3-dichloro-4-(6-(3-(2-(dimethylamino)ethyl)ureido)pyrimidin-4-yloxy)phenyl)urea] | 10.5 nM | −17.7% | 39.5% | 9% | 15.71 ± 2.48 × 10^5/mL | inhibitory effects | – | – | – | – |
